{"source": "paper PMC6588243", "about": "“Fate of ptaquiloside—A bracken fern toxin—In cattle” (PLoS ONE, 2019)", "assay_type_in_all_cases": "in vivo, Jersey heifers", "key": {"[1]": {"assay": "Toxicokinetics of PTA and PTB in plasma after intravenous administration of PTA", "settings": "for AUC0-∞: PTA in plasma; for k el / clearance / MRT / Vd: iv; for k el: read-out: λz terminal slope (converted)", "protocol": "(§1) Two heifers (no’s 4848 and 4849) were used in a series of five experiments (Table 1) in a cross-over design including intravenous administration of pure PTA, oral administration of bracken extract and oral administration of dried bracken fern. At least 2 weeks elapsed between each experiment.\nIntravenous administration of PTA. In Experiment 1 the dose of purified PTA (0.21 mg kg^-1 body weight (b.w.) / 0.527 μmoles kg^-1) was dissolved in 10 mL of sterile water in a brown glass vial 1 hour before administration and protected from light. The solution was injected through a catheter (Cavafix Certo: 45 cm, 16 G; B. Braun Melsungen AG, Melsungen, Germany) placed in the right jugular vein. Blood samples were collected through another catheter placed in the left jugular vein. Blood samples were collected in heparinized glass tubes before and at predetermined times (10, 20, 30, 45 min and 1, 2, 4, 6, 8, 12, 21 and 24 hours) after PTA administration. The blood was centrifuged for 15 min at 3000 g to separate plasma which then was stored immediately at -18°C until assayed within a week following the method of Aranha et al.. Urine was collected quantitatively in urinary bags (Ratiomed GmBH, München, Germany) through a Foley catheter (Rusch Silasil no 16; Teleflex, Milan, Italy) inserted into the bladder. Samples were collected before and at predetermined times (1, 2, 4, 6, 8, 12, 20 and 24 hours) after PTA administration. Two replicates from each sample were diluted 10 times (0.5 mL: 4.5 mL) with 0.1 M acetic acid, buffered to pH 5 with ammonium acetate and frozen immediately at -18°C until assayed within a week following the method of Aranha et al.. […] In this experiment, PTA was dissolved in sterile water immediately before injection.\n(§2) Concentrations of PTA in plasma of individual animals were evaluated by non-compartmental analysis. Toxicokinetic variables were calculated using standard kinetic equations. The area under the curve (AUC) and the area under the first moment curve (AUMC) were determined using combined linear and natural logarithm trapezoidal rules. The terminal elimination rate was determined using the last three data points of the curve.\n(§3) PTA and PTB were analysed by LC-MS after purification using solid phase extraction (SPE) columns as reported in Aranha et al.. The limit of quantification of PTA and PTB in plasma was 3.0 x 10^−3 μM and 9.30 x 10^−3 μM, respectively. Limit of quantifications in diluted urine was 13 x 10^−3 μM for PTA and 8.28 x 10^−3μM for PTB."}, "[2]": {"assay": "Presence of glucuronides and sulphates in urine (B-glucuronidase/arylsulfatase incubation)", "settings": "urine after iv PTA", "protocol": "The presence of glucuronides and sulphates was assessed by incubating 1 ml of buffered urine samples in 0.1 M acetic acid buffer (pH 5) with or without addition of 100 μl of B-glucuronidase/arylsulfatase at 37°C for 3 hours on a shaking water bath. Afterwards, an aliquot of 950 μl of each samples were cleaned on the Oasis HLB cartridges and analysed as described for urine samples [22]."}, "[3]": {"assay": "Toxicokinetics in plasma after oral administration of bracken extract or dried bracken fern", "settings": "bracken extract or dried bracken fern, Experiments 2, 3 and 5", "protocol": "as §1\n(§4) Oral exposure, bracken extract. Bracken extract was administered orally by gavage in Experiment 2 (170 and 172 mL) and Experiment 5 (820 and 850 mL), to obtain PTA doses of 0.41 and 2 mg kg^-1 b.w (1.025 and 5.000 μmoles kg^-1), respectively. Blood and urine samples were collected up to 48 hours after gavage and samples were processed and stored as described previously.\n(§5) Oral exposure, dried bracken fern. In Experiment 3, dried bracken fern was milled to a fine powder. Immediately before administration, the powder was mixed with water to produce a slurry (15 g of bracken per 100 mL of water). The slurry was administered orally by gavage (400 mL and 380 mL) corresponding to a PTA dose of 1.6 mg kg^-1 b.w (4 μmoles kg^-1). Blood and urine samples were collected up to 72 hours after gavage and the samples were processed and stored as described above.\nas §2, §3"}, "[4]": {"assay": "Urinary recovery after oral administration of bracken extract or dried bracken fern", "settings": "bracken extract or dried bracken fern", "protocol": "as §4, §5, §3"}, "[5]": {"assay": "One-week repeated dose trial with dried bracken, plasma toxicokinetics", "settings": "dried bracken, 7 days", "text": "The two heifers used for the single dose trials were also used for the one week repeated dose study together with an additional two Jersey heifers (no’s 1550 and 1567; Harald Hansen Eftf. I/S, Slangerup, Denmark) weighing 163 to 237 kg. The additional two heifers had never been exposed to PTA or to bracken fern. A wash-out period of 20 days between the last single-dose experiment and the one week repeated dose trial was established for heifers no’s 4848 and 4849.\nAll four heifers were fed dried bracken powder (top-dressed and molasses added). twice a day during a period of 7 days providing a daily PTA dose of 2 mg kg^-1 (5 μmoles kg^-1). On Day 8, the heifers no 4848 and no 1567 were additionally fed in the morning and euthanized 1 hour after using a captive bolt pistol and exsanguination. The two other heifers (no 4849 and no 1550) were euthanized 15 h after the last dose on Day 7 (Fig 2).\nBlank blood samples were collected before the first dose was given. On Day 1 and Day 7 blood samples were collected after the morning dose at predetermined time points between 1 and 6 h after dosing (1, 2, 3, 5 and 6 hours). On Day 2 to Day 6 blood samples were collected daily 1 hour after 50% or more of the morning feed had been ingested, since the bracken fern was not eaten instantly. On Day 8 blood samples were collected just before euthanasia. Blood samples were processed and stored as described above.\nas §2"}}, "note": "Entries after “also recorded” stand apart in the source; their conditions may differ. Like-named read-outs stand apart in the source and are kept apart here.", "data": [{"smiles": "CC1=C[C@]2(O[C@@H]3O[C@H](CO)[C@@H](O)[C@H](O)[C@H]3O)C[C@@H](C)C(=O)[C@@H]2[C@](C)(O)C12CC2", "note": "[PTA, (2'R,3a'R,4'S,7a'R)-4'-Hydroxy-2',4',6'-trimethyl-3'-oxo-2',3',3a',4'-tetrahydrospiro[cyclopropane-1,5'-inden]-7a'(1'H)-yl β-D-glucopyranoside]", "values": [{"measurement": "AUC0-∞", "setting": "[1]; iv PTA 0.141 μmoles kg^-1, heifer no 4849, head prints Experiment 2", "result": 0.42, "unit": "µM·h"}, {"measurement": "AUC0-∞", "setting": "[1]; iv PTA 0.231 μmoles kg^-1, heifer no 4848, head prints Experiment 2", "result": 0.829, "unit": "µM·h"}, {"measurement": "AUC0-∞", "setting": "[1]; iv PTA 0.527 μmoles kg^-1, heifer no 4848, Experiment 1", "result": 1.39, "unit": "µM·h"}, {"measurement": "AUC0-∞", "setting": "[1]; iv PTA 0.527 μmoles kg^-1, heifer no 4849, Experiment 1", "result": 1.35, "unit": "µM·h"}, {"measurement": "k el", "setting": "[1]; female, Jersey, bovine, plasma, 0.141 μmoles kg^-1, iv PTA 0.141 μmoles kg^-1, heifer no 4849, head prints Experiment 2, plasma", "result": "6.72e-05", "unit": "s⁻¹"}, {"measurement": "clearance", "setting": "[1]; female, Jersey, bovine, plasma, 0.141 μmoles kg^-1, iv PTA 0.141 μmoles kg^-1, heifer no 4849, head prints Experiment 2, read-out: Cl (body) body clearance (converted)", "result": 5.57, "unit": "mL/min/kg"}, {"measurement": "MRT", "setting": "[1]; female, Jersey, bovine, plasma, 0.141 μmoles kg^-1, iv PTA 0.141 μmoles kg^-1, heifer no 4849, head prints Experiment 2, read-out: MRT mean residence time", "result": 2.48, "unit": "h"}, {"measurement": "Vd", "setting": "[1]; female, Jersey, bovine, plasma, 0.141 μmoles kg^-1, iv PTA 0.141 μmoles kg^-1, heifer no 4849, head prints Experiment 2, read-out: Vss apparent volume of distribution at steady-state", "result": 0.83, "unit": "L/kg"}, {"measurement": "k el", "setting": "[1]; female, Jersey, bovine, plasma, 0.231 μmoles kg^-1, iv PTA 0.231 μmoles kg^-1, heifer no 4848, head prints Experiment 2, plasma", "result": 0.000105, "unit": "s⁻¹"}, {"measurement": "clearance", "setting": "[1]; female, Jersey, bovine, plasma, 0.231 μmoles kg^-1, iv PTA 0.231 μmoles kg^-1, heifer no 4848, head prints Experiment 2, read-out: Cl (body) body clearance (converted)", "result": 4.72, "unit": "mL/min/kg"}, {"measurement": "MRT", "setting": "[1]; female, Jersey, bovine, plasma, 0.231 μmoles kg^-1, iv PTA 0.231 μmoles kg^-1, heifer no 4848, head prints Experiment 2, read-out: MRT mean residence time", "result": 2.04, "unit": "h"}, {"measurement": "Vd", "setting": "[1]; female, Jersey, bovine, plasma, 0.231 μmoles kg^-1, iv PTA 0.231 μmoles kg^-1, heifer no 4848, head prints Experiment 2, read-out: Vss apparent volume of distribution at steady-state", "result": 0.567, "unit": "L/kg"}, {"measurement": "k el", "setting": "[1]; female, Jersey, bovine, plasma, 0.527 μmoles kg^-1, iv PTA 0.527 μmoles kg^-1, heifer no 4848, Experiment 1, plasma", "result": "4.25e-05", "unit": "s⁻¹"}, {"measurement": "clearance", "setting": "[1]; female, Jersey, bovine, plasma, 0.527 μmoles kg^-1, iv PTA 0.527 μmoles kg^-1, heifer no 4848, Experiment 1, read-out: Cl (body) body clearance (converted)", "result": 6.33, "unit": "mL/min/kg"}, {"measurement": "MRT", "setting": "[1]; female, Jersey, bovine, plasma, 0.527 μmoles kg^-1, iv PTA 0.527 μmoles kg^-1, heifer no 4848, Experiment 1, read-out: MRT mean residence time", "result": 2.99, "unit": "h"}, {"measurement": "Vd", "setting": "[1]; female, Jersey, bovine, plasma, 0.527 μmoles kg^-1, iv PTA 0.527 μmoles kg^-1, heifer no 4848, Experiment 1, read-out: Vss apparent volume of distribution at steady-state", "result": 1.14, "unit": "L/kg"}, {"measurement": "k el", "setting": "[1]; female, Jersey, bovine, plasma, 0.527 μmoles kg^-1, iv PTA 0.527 μmoles kg^-1, heifer no 4849, Experiment 1, plasma", "result": "3.19e-05", "unit": "s⁻¹"}, {"measurement": "clearance", "setting": "[1]; female, Jersey, bovine, plasma, 0.527 μmoles kg^-1, iv PTA 0.527 μmoles kg^-1, heifer no 4849, Experiment 1, read-out: Cl (body) body clearance (converted)", "result": 6.48, "unit": "mL/min/kg"}, {"measurement": "MRT", "setting": "[1]; female, Jersey, bovine, plasma, 0.527 μmoles kg^-1, iv PTA 0.527 μmoles kg^-1, heifer no 4849, Experiment 1, read-out: MRT mean residence time", "result": 3.84, "unit": "h"}, {"measurement": "Vd", "setting": "[1]; female, Jersey, bovine, plasma, 0.527 μmoles kg^-1, iv PTA 0.527 μmoles kg^-1, heifer no 4849, Experiment 1, read-out: Vss apparent volume of distribution at steady-state", "result": 1.49, "unit": "L/kg"}, {"measurement": "Vd", "setting": "[1]; female, Jersey, bovine, plasma, 0.21 mg/kg, iv PTA 0.21 mg kg^-1 b.w., average of two heifers, read-out: apparent volume of distribution at steady state (Vss)", "result": "~1.3", "unit": "L/kg"}, {"measurement": "MRT", "setting": "[1]; female, Jersey, bovine, plasma, iv PTA, abstract and discussion, read-out: mean residence time (MRT), as summarised", "result": "≤ 4", "unit": "h"}, {"measurement": "half-life", "setting": "[1]; female, Jersey, bovine, plasma, iv purified PTA, read-out: terminal half-life", "result": "≤ 6", "unit": "h"}, {"measurement": "Vd", "setting": "[1]; female, Jersey, cattle, plasma, 0.21 mg/kg, iv PTA 0.21 mg kg^-1 b.w., average of two heifers, read-out: apparent volume of distribution at steady state (Vss)", "result": 1.3, "unit": "L/kg"}, {"measurement": "clearance", "setting": "[1]; female, Jersey, cattle, plasma, 0.21 mg/kg, iv PTA 0.21 mg kg^-1 b.w., average of two heifers, read-out: average clearance (converted)", "result": 6.5, "unit": "mL/min/kg"}, {"measurement": "MRT", "setting": "[1]; female, Jersey, cattle, plasma, 0.21 mg/kg, iv PTA 0.21 mg kg^-1 b.w., average of two heifers, read-out: average of the mean residence time (MRT)", "result": 3.4, "unit": "h"}, {"measurement": "MRT", "setting": "[1]; female, Jersey, cattle, plasma, iv PTA, abstract and discussion, read-out: mean residence time (MRT), as summarised", "result": 4, "unit": "h"}, {"measurement": "time after which the plasma concentration was below the limit of quantification", "setting": "[1]; iv PTA 0.21 mg kg^-1 b.w.", "result": 12, "unit": "h"}, {"measurement": "conjugation with glucuronic acid or sulphate in urine", "setting": "[2]", "result": "not conjugated with either glucuronic acid or sulphate"}, {"measurement": "PTA in plasma after oral administration", "setting": "[3]", "result": "not detected; also recorded: neither detected"}, {"measurement": "PTA in plasma after oral administration", "setting": "[3]; listed as ptaquiloside", "result": "did not result in observations of ptaquiloside in body fluids"}, {"measurement": "PTA in urine after oral administration", "setting": "[4]", "result": "neither detected"}, {"measurement": "PTA in plasma after repeated oral administration", "setting": "[5]", "result": "not detected"}]}]}
